According to US20150024934A1, “CONTROLLING CHARCOAL ROT WITH FLUTRIAFOL” (CHEMINOVA A/S, priority 2013, published 2015):

Columns and labels:
[1] = tested on: charcoal rot; test: Strawberry field trial for control of charcoal rot (infected plants, yield); format: in vivo; conditions: applied either surface incorporated or via buried drip
[2] = tested on: Macrophomina phaseolina; test: Mycelial colony growth on flutriafol-amended PDA; format: cell-based; conditions: 1x; for Dia (mm) 1 day: untreated 28.2; for Dia (mm) 3 days / Dia (mm) 5 days / Dia (mm) 7 days: untreated 40
Description: Inhibition of Macrophomina phaseolina (charcoal rot) was tested in the following example: The flutriafol composition used in the example was TOPGUARD (125 g/L flutriafol SC), a commercially available product.
Each pathogen was grown out on fresh potato dextrose agar (commercial PDA), assessed and used to seed 2× autoclaved rice for inoculums development. At 7-10 days, two infested rice grains with the pathogen was placed at equal distances on flutriafol-amended PDA and incubated at 27-29° C. Mycelial colony diameter from each rice grain was measured at 1, 3, 5 and 7 days from grain placement. The included tables and data sets illustrate the differences in mycelia growth in response to various concentrations of the fungicide.

With `OC(Cn1cncn1)(c1ccc(F)cc1)c1ccccc1F` (racemic) [flutriafol, (RS)-2,4′-difluoro-α-(1H-1,2,4-triazol-1-ylmethyl)benzhydryl alcohol] the “effect on charcoal rot” value [1] was “significantly reduced charcoal rot”, the “Dia (mm) 1 day” value ([2]; 0.01 ppm) was 25.5 mm and the “Dia (mm) 3 days” value ([2]; 0.01 ppm) was 40 mm. The “Dia (mm) 5 days” value ([2]; 0.01 ppm) was 40 mm, the “Dia (mm) 7 days” value ([2]; 0.01 ppm) was 40 mm and the “Dia (mm) 1 day” value ([2]; 0.1 ppm) was 22.3 mm. For the same compound, the “Dia (mm) 3 days” value ([2]; 0.1 ppm) was 40 mm, the “Dia (mm) 5 days” value ([2]; 0.1 ppm) was 40 mm and the “Dia (mm) 7 days” value ([2]; 0.1 ppm) was 40 mm. For the same compound, the “Dia (mm) 1 day” value ([2]; 1 ppm) was 13.9 mm, the “Dia (mm) 3 days” value ([2]; 1 ppm) was 38.6 mm and the “Dia (mm) 5 days” value ([2]; 1 ppm) was 40 mm. For the same compound, the “Dia (mm) 7 days” value ([2]; 1 ppm) was 40 mm, the “Dia (mm) 1 day” value ([2]; 10 ppm) was 0 mm and the “Dia (mm) 3 days” value ([2]; 10 ppm) was 3.5 mm. For the same compound, the “Dia (mm) 5 days” value ([2]; 10 ppm) was 3.5 mm, the “Dia (mm) 7 days” value ([2]; 10 ppm) was 5.1 mm and the “Dia (mm) 1 day” value ([2]; 100 ppm) was 0 mm. The “Dia (mm) 3 days” value ([2]; 100 ppm) was 0 mm, the “Dia (mm) 5 days” value ([2]; 100 ppm) was 0 mm and the “Dia (mm) 7 days” value ([2]; 100 ppm) was 0 mm. For the same compound, the “Dia (mm) 1 day” value ([2]; 250 ppm, mycelial colony diameter, TOPGUARD 125 g/L SC in PDA) was 0 mm, the “Dia (mm) 3 days” value ([2]; 250 ppm) was 0 mm and the “Dia (mm) 5 days” value ([2]; 250 ppm) was 0 mm. For the same compound, the “Dia (mm) 7 days” value ([2]; 250 ppm) was 0 mm.
